{
  "source": "patent US20180168151A1",
  "about": "“COMPOSITION AND SYSTEM FOR ATTRACTING LEPIDOPTEROUS INSECTS” (The New Zealand Institute for Plant and Food Research …, priority 2015, published 2018)",
  "key": {"[1]": {"tested_on": "LBAM", "assay": "Example 1B: individual compounds as attractants, baited traps", "assay_type": "in vivo, Epiphyas postvittana", "details": "tested individually, 10 mg (acetic acid 0.3 mL); no significant differences among treatments", "procedure": "(§1) This experiment was conducted from 28 Nov. to 12 Dec. 2013 for LBAM and 3-10 Jun. 2015 for ESBM and OBLR to investigate the biological activity of the individual volatile organic compounds. Lures of benzyl alcohol, benzyl nitrile, indole, 2-phenyethanol, (E)-nerolidol, and 0.3 mL acetic acid were made by dispensing 10 mg of each compound on a Boomerang regular cellulose acetate filter (7.5 mm diameter×10 mm, Moss Packaging Co. Ltd., Wellington, New Zealand) inside a permeable polyethylene bag (100 μm wall thickness, 20 mm×20 mm, Masterton, New Zealand) that was then heat-sealed. A trap with a lure without chemical was used as negative control."}, "[2]": {"tested_on": "OBLR", "assay": "Example 1B: individual compounds as attractants, baited traps", "assay_type": "in vivo, Choristoneura rosaceana", "details": "tested individually, 10 mg", "procedure": "as §1"}, "[3]": {"tested_on": "ESBM", "assay": "Example 5: binary and ternary blends, baited traps", "assay_type": "in vivo, Spilonota ocellana", "details": "100 mg 2-phenylethanol added to 100 mg benzyl nitrile and 3 mL acetic acid", "procedure": "(§2) This trial was conducted in a mixed variety apple orchard in Summerland, British Columbia, Canada from 28 Jul. to 11 Aug. 2014 targeting ESBM and threelined leaf rollers (TLLR). […] White delta traps (Trece Inc) were used."}, "[4]": {"tested_on": "TLLR", "assay": "Example 5: binary and ternary blends, baited traps", "assay_type": "in vivo, Pandemis limtata", "details": "100 mg 2-phenylethanol added to 100 mg benzyl nitrile and 3 mL acetic acid", "procedure": "as §2"}, "[5]": {"tested_on": "ESBM", "assay": "Example 1B: individual compounds as attractants, baited traps", "assay_type": "in vivo, Spilonota ocellana", "details": "tested individually, 10 mg (acetic acid 0.3 mL); no significant differences among treatments", "procedure": "as §1"}, "[6]": {"tested_on": "ESBM", "procedure": "(§3) The variance of mean captures obtained with each compound or each blend of compounds was stabilized using the √(x+1) transformation of counts and the significance of treatment effects tested using ANOVA.\n(§4) This experiment was conducted between the 11th to the 22 Jul. 2014 in a mixed variety organic apple orchard in Summerland, British Columbia, Canada. Large white delta traps (Trece Inc) were used. The loadings of blends were as follow: 1) 100 mg benzyl nitrile and 3 mL acetic acid; 2) 100 mg of 2-phenyethanol and 3 mL acetic acid; 3) 100 mg benzyl alcohol and 3 mL acetic acid. Traps baited with 3 mL of acetic acid was used to quantify the role of acetic acid. A trap with a blank lure was used as negative control. Traps were baited with the compound of formula I and placed in 5 rows, with five replicates of each treatment in a randomized block design. Traps were positioned 1.5 m above the ground in each trap tree, and were spaced 20 m apart in each row. Each treatment was assigned randomly to a trap tree within each row of trees. The polythene sachet and the acetic acid vial were attached to the side of the traps using Velcro tape. Sticky bases were checked weekly during the experimental period.\n(§5) This experiment was conducted between 3 Jul. to 17 Jul. 2014 in a mixed variety organic apple orchard in Summerland, British Columbia, Canada using the same experimental protocol as Example 4. The trial targeted both ESBM and OBLR. The relative attractiveness of the following treatments was investigated: 1) 100 mg benzyl nitrile alone; 2) 3 mL acetic acid alone; and 3) 100 mg of benzyl nitrile and 3 mL acetic acid. A trap with a blank lure was used as negative control."}, "[7]": {"tested_on": "OBLR", "procedure": "as §3, §4, §5"}, "[8]": {"tested_on": "ESBM", "details": "for numbers of ESBM males and females attracted, each alone, compared with each other: 10 mg benzyl nitrile alone, 0.3 mL acetic acid alone", "procedure": "as §3\n(§6) This experiment was conducted from 21 Jun. to 2 Jul. 2015 only for ESBM and OBLR in a mixed varieties apple orchard in Summerland, British Columbia, Canada (49°34′50.02″N, 119°38′16.57″W). The relative attractiveness of the following treatments was investigated: 1) 10 mg benzyl nitrile alone; 2) 0.3 mL acetic acid alone; and 3) 10 mg benzyl nitrile+0.3 mL acetic acid. A trap with a blank lure was used as negative control."}, "[9]": {"tested_on": "OBLR", "details": "for numbers of OBLR males and females attracted, each alone, compared with each other: 10 mg benzyl nitrile alone, 0.3 mL acetic acid alone", "procedure": "as §3, §6"}, "[10]": {"tested_on": "ESBM", "assay": "Example 7A: various doses of benzyl nitrile with constant acetic acid, baited traps", "assay_type": "in vivo, Spilonota ocellana", "procedure": "Large white delta traps (Trece Inc) were used. […] Sticky bases were checked weekly during the experimental period.\nThis experiment was conducted between 8 Jul. to 22 Jul. […] This trial targeted ESBM. The relative attractiveness of three binary blends containing constant amount of acetic acid (3 mL) plus varying amounts of benzyl nitrile (1, 10, and 100 mg) was investigated. […] Experimental protocol was similar to Example 4."}, "[11]": {"tested_on": "Lepidopterous insects", "assay": "Summary of field attractant trials (description)", "assay_type": "in vivo", "details": "other compounds released by infested apple seedlings; results were inconsistent", "procedure": "In the trials described in the Examples, the compounds of formula I were placed inside a permeable polyethylene bag. The acetic acid was applied to a cotton ball inside a 5 ml polyethylene vial containing a 1 mm hole. The bag and vial were placed in the centre of a sticky trap."}, "[12]": {"details": "100 mg benzyl nitrile added to 3 mL acetic acid"}, "[13]": {"details": "10 mg benzyl nitrile added to 0.3 mL acetic acid, P<0.05"}, "[14]": {"details": "binary blend containing 1 mg benzyl nitrile, 3 mL acetic acid"}, "[15]": {"details": "binary blend with constant 3 mL acetic acid"}},
  "data": [
    {"smiles": "OCCc1ccccc1", "note": "[2-phenylethanol]", "values": [
      {"measurement": "attraction of adult LBAM into traps", "setting": "[1]", "value": "attracted males and females into the traps"},
      {"measurement": "attraction of OBLR into traps", "setting": "[2]", "value": "attracted males and females"},
      {"measurement": "change in number of ESBM males and females on addition to binary blend benzyl nitrile/acetic acid", "setting": "[3]", "value": "did not result in significant increase"},
      {"measurement": "change in number of TLLR males and females on addition to binary blend benzyl nitrile/acetic acid", "setting": "[4]", "value": "did not result in significant increase"}
    ]},
    {"smiles": "N#CCc1ccccc1", "note": "[benzyl nitrile]", "values": [
      {"measurement": "attraction of adult LBAM into traps", "setting": "[1]", "value": "attracted males and females into the traps"},
      {"measurement": "attraction of ESBM into traps", "setting": "[5]", "value": "attracted males and females into the traps"},
      {"measurement": "fold increase in number of ESBM females caught on addition to acetic acid", "setting": "[6]; [12]", "value": 3, "unit": "fold"},
      {"measurement": "fold increase in number of ESBM males caught on addition to acetic acid", "setting": "[6]; [12]", "value": 4, "unit": "fold"},
      {"measurement": "attractiveness to adults ESBM, compound alone", "setting": "[6]; 100 mg benzyl nitrile alone", "value": "not attractive"},
      {"measurement": "fold increase in number of OBLR females caught on addition to acetic acid", "setting": "[7]; [12]", "value": 9, "unit": "fold"},
      {"measurement": "fold increase in number of OBLR males caught on addition to acetic acid", "setting": "[7]; [12]", "value": 2, "unit": "fold"},
      {"measurement": "attractiveness to adults OBLR, compound alone", "setting": "[7]; 100 mg benzyl nitrile alone", "value": "not attractive"},
      {"measurement": "change in number of ESBM males and females caught on addition to acetic acid", "setting": "[8]; [13]", "value": "significant increases"},
      {"measurement": "numbers of ESBM males and females attracted, each alone, compared with each other", "setting": "[8]", "value": "attracted similar numbers"},
      {"measurement": "change in number of OBLR males and females caught on addition to acetic acid", "setting": "[9]; [13]", "value": "significant increases"},
      {"measurement": "numbers of OBLR males and females attracted, each alone, compared with each other", "setting": "[9]", "value": "attracted similar numbers"},
      {"measurement": "ESBM females attracted compared with acetic acid alone", "setting": "[10]; [14]", "value": "significantly more females"},
      {"measurement": "response of ESBM males compared with acetic acid alone", "setting": "[10]; [14]", "value": "not significant"},
      {"measurement": "change in number of ESBM males and females caught on increasing dose from 1 mg to 10 mg", "setting": "[10]; [15]", "value": "significant increase"},
      {"measurement": "change in number of ESBM males and females caught on increasing dose from 10 mg to 100 mg", "setting": "[10]; [15]", "value": "did not result in a significant increase"}
    ]},
    {"smiles": "OCc1ccccc1", "note": "[benzyl alcohol]", "values": [
      {"measurement": "attraction of adult LBAM into traps", "setting": "[1]", "value": "attracted males and females into the traps"}
    ]},
    {"smiles": "c1ccc2[nH]ccc2c1", "note": "[indole]", "values": [
      {"measurement": "attractant activity against some insects", "setting": "[11]", "value": "some attractant activity"}
    ]},
    {"smiles": "C=CC(C)(O)CC/C=C(\\C)CCC=C(C)C", "note": "(centres unmarked) [(E)-nerolidol]", "values": [
      {"measurement": "attractant activity against some insects", "setting": "[11]", "value": "some attractant activity"}
    ]},
    {"smiles": "CC(=O)O", "note": "[acetic acid]", "values": [
      {"measurement": "attraction of adult LBAM into traps", "setting": "[1]", "value": "attracted males and females into the traps"},
      {"measurement": "attraction of ESBM into traps", "setting": "[5]", "value": "attracted males and females into the traps"},
      {"measurement": "ESBM males and females attracted, compared with traps baited with benzyl nitrile alone", "setting": "[6]; 3 mL acetic acid alone", "value": "significantly attracted more males and females"},
      {"measurement": "OBLR males and females attracted, compared with traps baited with benzyl nitrile alone", "setting": "[7]; 3 mL acetic acid alone", "value": "significantly attracted more males and females"},
      {"measurement": "numbers of ESBM males and females attracted, each alone, compared with each other", "setting": "[8]", "value": "attracted similar numbers"},
      {"measurement": "numbers of OBLR males and females attracted, each alone, compared with each other", "setting": "[9]", "value": "attracted similar numbers"}
    ]}
  ]
}
